Data taken from US9988430B2, “Stable GLP-1 based GLP-1/glucagon receptor co-agonists” (Novo Nordisk A/S, priority 2014, dated 2018).
*1 amine or outer side, *2 acyl side, *3 side chain or, on linkers, in order; H or OH if unused. Where a SMILES comes first, the peptide text is derived from it. Bridges are numbered along the chain shown (N, C = ends). Roman numbers before positions name the chains, in order. [ ]: non-standard residue; d: D form. The star is where a group is joined. C20 diacid = O=C(O)CCCCCCCCCCCCCCCCCCC(=O)*; C18 diacid = O=C(O)CCCCCCCCCCCCCCCCC(=O)*; γGlu = O=C(O)[C@H](CCC(=O)[*:2])N[*:1]; Desaminohistidyl = O=C(CCc1c[nH]cn1)*; Ac4c = NC1(C(=O)O)CCC1; Aib = CC(C)(N)C(=O)O

Experiments:
[1] = Assay (V): chemical stability assessment by RP-UPLC; type: physicochemical; conditions: 14 days at 37° C. in phosphate buffer (pH 7.3)
Experimental: Assay (V): Chemical Stability Assessment
The purpose of this assay is to assess the chemical stability of the GLP-1 derivatives of the present invention in aqueous solutions.
Chemical stability of GLP-1 derivatives may be investigated by RP-UPLC separation and UV detection. Lyophilized samples are dissolved in a 8 mM Phosphate buffer pH 8.6, followed by adjustment to pH 7.3 using HCl to a final concentration of 333 μM. Samples are incubated for 14 days at 5° C. and 37° C. followed by RP-UPLC analysis. Purity is defined as the area percentage of the main peak in relation to the total area of all integrated peaks in each chromatogram. Purity loss, also referred to herein as chemical degradation, after 14 days at 37° C. is determined as the difference in purity between the samples incubated at 5° C. and 37° C., divided by the purity of the sample after incubation for 14 days at 5° C.
RP-UPLC analysis is performed using a Waters BEH130 2.1 mm×150 mm, 1.7 μm column operated at 50° C. and a flow rate of 0.4 mL/min using a mobile phase system consisting of A: 0.05% TFA in MQ-water, and B: 0.05% TFA in Acetonitrile. UV-detection is performed at 215 nm. The typical gradient profile used for most of the samples is shown below.
For some individual derivatives eluting at substantially different retention times compared with the majority of derivatives, some adjustments to the gradient profile are made to better enable purity assessment comparison across samples.

human GLP-1 receptor [2] = molecular target: T1, human GLP-1 receptor (Homo sapiens, UniProt P43220); assay: Assay (II)(a): GLP-1 receptor binding, [125I]GLP-1 displacement, SPA on BHK membranes; conditions: displacement of [125I]GLP-1, membranes with human GLP-1 receptor; read-out: IC50 GLP-1R
T1 construct: expressed in transfected cells; host or cells: membranes of BHK cells, parent line BHKTS13, clone FCW467-12A
Method in brief: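 Membranes from BHK cells expressing human GLP-1 receptor with WGA SPA beads, [125I]GLP-1(7-36)NH2 (480 pM added solution) and compound in HEPES pH 7.4 buffer with EGTA, MgCl2, Tween 20. Incubated 2 h at 30° C; SPA counts fitted by non-linear regression to IC50 in nM.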

human GLP-1 receptor [3] = molecular target: T1, human GLP-1 receptor; assay: Assay (I)(a): GLP-1 receptor potency, CRE luciferase reporter gene assay in BHK cells; type: cell-based; conditions: BHK cells expressing human GLP-1 receptor, read-out: EC50 GLP-1R
Experimental: Assay (I): GLP-1 and Glucagon Receptor Potency The purpose of this example was to test the activity or potency, of the GLP-1 derivatives of the invention, in vitro. The in vitro potency is the measure of human GLP-1 receptor (GLP-1R) or glucagon receptor (glucagonR) activation, respectively, in a whole cell assay. In vitro potency was determined by measuring the cellular response of human GLP-1 or glucagon receptor activation, respectively, in a reporter gene assay. The assay was performed in a BHK cell line that stably expresses either the human GLP-1 receptor or the human glucagon receptor and comprises the DNA for the cAMP response element (CRE) coupled to a promoter and the gene for firefly luciferase (CRE luciferase). […] When assay incubation was completed, the luciferase substrate (luciferin) was added and the enzyme converted luciferin to oxyluciferin and produces bioluminescence. The luminescence was measured as the readout for the assay. (a) GLP-1 Receptor Activation The cells used in this assay (clone FCW467-12A/KZ10-1) were BHK cells with BHKTS13 as a parent cell line. The cells were derived from a clone (FCW467-12A) that expresses the human GLP-1 receptor and were established by further transfection with CRE luciferase to obtain the current clone. The cells were cultured at 5% CO2 in DMEM medium with 10% FBS, 1×GlutaMAX, 1 mg/ml G418, 240 nM MTX (methotrexate) and 1% pen/strep (penicillin/streptomycin). They were aliquoted and stored in liquid nitrogen. Before each assay, an aliquot was taken up and washed three times in PBS before being suspended at the desired concentration in assay medium. For 96-well plates the suspension was made to give a final concentration of 5×10EE3 cells/well. The following chemicals were used in the assay: Pluronic F-68 (10%) (Gibco 2404), Ovalbumin (Sigma A5503), DMEM w/o phenol red (Gibco 11880-028), 1 M Hepes (Gibco 15630), Glutamax 100× (Gibco 35050) and steadylite plus (PerkinElmer 6016757). Assay Medium consisted of DMEM w/o phenol red, 10 mM Hepes, 1×GlutaMAX, 2% Ovalbumin and 0.2% Pluronic F-68. Cell stocks were thawed in a 37° C. water bath. Cells were washed three times in PBS. The cells were counted and adjusted to 5×10EE3 cells/50 μl (1×10EE5 cells/ml) in Assay Medium. A 50 μl aliquot of cells was transferred to each well in the assay plate. Stocks of the test compounds and reference compounds were diluted to a concentration of […] in Assay Medium. Compounds were diluted 10-fold to give the following concentrations: 2×10EE-6 M, 2×10EE-7 M, 2×10EE-8 M; 2×10EE-9 M, 2×10EE-10 M, 2×10EE-11 M, 2×10EE-12 M and 2×10EE-13 M. For each compound a blank assay medium control was also included. A 50 μl aliquot of compound or blank was transferred from the dilution plate to the assay plate. Compounds were tested at the following final concentrations: 1×10EE-6 M, 1×10EE-7 M, 1×10EE-8 M; 1×10EE-9 M, 1×10EE-10 M, 1×10EE-11 M and 1×10EE-12 M and 1×10EE-13 M. The assay plate was incubated for 3 h in a 5% CO2 incubator at 37° C. The assay plate was removed from the incubator and allowed to stand at room temperature for 15 min. A 100 μl aliquot of steadylite plus reagent was added to each well of the assay plate (reagent is light sensitive). Each assay plate was covered with aluminum foil to protect it from light and shaken for 30 min at room temperature. Each assay plate was read in a Perkin Elmer TopCount NXT instrument. The data from the TopCount instrument was transferred to GraphPad Prism software. The software performed a non-linear regression (log(agonist) vs response-Variable slope (four parameter)). EC50 values were calculated by the software and reported in pM.

T1 sequence (P43220 24-463): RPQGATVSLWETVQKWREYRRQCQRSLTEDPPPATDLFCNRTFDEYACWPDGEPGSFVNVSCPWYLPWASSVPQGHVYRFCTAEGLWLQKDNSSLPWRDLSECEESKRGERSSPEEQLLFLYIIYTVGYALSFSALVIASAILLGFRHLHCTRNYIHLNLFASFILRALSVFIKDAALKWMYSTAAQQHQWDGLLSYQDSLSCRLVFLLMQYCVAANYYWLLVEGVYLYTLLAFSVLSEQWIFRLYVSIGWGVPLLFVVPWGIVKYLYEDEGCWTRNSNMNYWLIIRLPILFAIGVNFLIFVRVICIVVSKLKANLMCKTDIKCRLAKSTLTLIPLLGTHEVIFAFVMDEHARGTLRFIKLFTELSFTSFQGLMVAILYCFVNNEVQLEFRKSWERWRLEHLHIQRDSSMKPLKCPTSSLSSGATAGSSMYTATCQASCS

## CC[C@H](C)[C@H](NC(=O)[C@H](Cc1ccccc1)NC(=O)[C@H](CCC(=O)O)NC(=O)[C@H](CCCNC(=N)N)NC(=O)[C@H](C)NC(=O)[C@H](C)NC(=O)[C@H](CCC(N)=O)NC(=O)[C@H](CCC(=O)O)NC(=O)[C@H](CCC(=O)O)NC(=O)[C@H](CC(C)C)NC(=O)[C@H](Cc1ccc(O)cc1)NC(=O)[C@H](CCCCN)NC(=O)[C@H](CO)NC(=O)[C@H](Cc1ccc(O)cc1)NC(=O)[C@H](CC(=O)O)NC(=O)[C@H](CO)NC(=O)[C@@H](NC(=O)[C@H](Cc1ccccc1)NC(=O)[C@@H](NC(=O)CNC(=O)[C@H](Cc1c[nH]cn1)NC(=O)C1(NC(=O)CCc2c[nH]cn2)CCC1)[C@@H](C)O)[C@@H](C)O)C(=O)N[C@@H](C)C(=O)N[C@@H](Cc1c[nH]c2ccccc12)C(=O)N[C@@H](CC(C)C)C(=O)N[C@@H](CC(C)C)C(=O)N[C@@H](CCCCN)C(=O)N[C@@H](CCCCNC(=O)CNC(=O)[C@H](CO)NC(=O)[C@H](CCC(=O)O)NC(=O)CNC(=O)[C@H](CO)NC(=O)CC[C@H](NC(=O)CC[C@H](NC(=O)CCCCCCCCCCCCCCCCC(=O)O)C(=O)O)C(=O)O)C(N)=O [Example 1, N^ε35-[2-[[(2S)-2-[[(2S)-4-carboxy-2-[[2-[[(2S)-2-[[(4S)-4-carboxy-4-[[(4S)-4-carboxy-4-(17-carboxyheptadecanoylamino)butanoyl]amino]butanoyl]amino]-3-hydroxypropanoyl]amino]acetyl]amino]butanoyl]amino]-3-hydroxypropanoyl]amino]acetyl]-[Imp7,Acb8,His9,Tyr16,Lys18,Glu22,Arg26,Leu33,Lys35]-GLP-1-(7-35)-peptide amide] (I: Desaminohistidyl-[Ac4c]HGTFTSDYSKYLEEQAAREFIAWLLKK-NH2 / II: {C18 diacid-γGlu-γGlu}-SGESG; amide I:28-II:C)
[1]
  Chemical stability: Chemical degradation over 14 days at 37° C.: 1.5%
Human GLP-1 receptor [2]
  IC50: 700 pM

## CC[C@H](C)[C@H](NC(=O)[C@H](Cc1ccccc1)NC(=O)[C@H](CCC(=O)O)NC(=O)[C@H](CCCNC(=N)N)NC(=O)[C@H](C)NC(=O)[C@H](C)NC(=O)[C@H](CCC(N)=O)NC(=O)[C@H](CCC(=O)O)NC(=O)[C@H](CCC(=O)O)NC(=O)[C@H](CC(C)C)NC(=O)[C@H](Cc1ccc(O)cc1)NC(=O)[C@H](CCCCN)NC(=O)[C@H](CO)NC(=O)[C@@H](NC(=O)[C@H](CC(=O)O)NC(=O)[C@H](CO)NC(=O)[C@@H](NC(=O)[C@H](Cc1ccccc1)NC(=O)[C@@H](NC(=O)CNC(=O)[C@H](Cc1c[nH]cn1)NC(=O)C(C)(C)NC(=O)CCc1c[nH]cn1)[C@@H](C)O)[C@@H](C)O)C(C)C)C(=O)N[C@@H](C)C(=O)N[C@@H](Cc1c[nH]c2ccccc12)C(=O)N[C@@H](CC(C)C)C(=O)N[C@@H](CC(C)C)C(=O)N[C@@H](CCCCNC(=O)CNC(=O)[C@H](CO)NC(=O)[C@H](CCC(=O)O)NC(=O)CNC(=O)[C@H](CO)NC(=O)CC[C@H](NC(=O)CC[C@H](NC(=O)CCCCCCCCCCCCCCCCCCC(=O)O)C(=O)O)C(=O)O)C(=O)N[C@H](C(N)=O)[C@@H](C)O [Example 30, N^ε34-[2-[[(2S)-2-[[(2S)-4-carboxy-2-[[2-[[(2S)-2-[[(4S)-4-carboxy-4-[[(4S)-4-carboxy-4-(19-carboxynonadecanoylamino)butanoyl]amino]butanoyl]amino]-3-hydroxypropanoyl]amino]acetyl]amino]butanoyl]amino]-3-hydroxypropanoyl]amino]acetyl]-[Imp7,Aib8,His9,Lys18,Glu22,Arg26,Leu33,Thr35]-GLP-1-(7-35)-peptide amide] (I: Desaminohistidyl-[Aib]HGTFTSDVSKYLEEQAAREFIAWLLKT-NH2 / II: {C20 diacid-γGlu-γGlu}-SGESG; amide I:27-II:C)
Human GLP-1 receptor [3]
  EC50: 5 pM
Human GLP-1 receptor [2]
  IC50: 400 pM

## CC[C@H](C)[C@H](NC(=O)[C@H](Cc1ccccc1)NC(=O)[C@H](CCC(=O)O)NC(=O)[C@H](CCCNC(=N)N)NC(=O)[C@H](C)NC(=O)[C@H](C)NC(=O)[C@H](CCC(N)=O)NC(=O)[C@H](CCC(=O)O)NC(=O)[C@H](CCC(=O)O)NC(=O)[C@H](CC(C)C)NC(=O)[C@H](Cc1ccc(O)cc1)NC(=O)[C@H](CCCNC(=N)N)NC(=O)[C@H](CO)NC(=O)[C@@H](NC(=O)[C@H](CC(=O)O)NC(=O)[C@H](CO)NC(=O)[C@@H](NC(=O)[C@H](Cc1ccccc1)NC(=O)[C@@H](NC(=O)CNC(=O)[C@H](Cc1c[nH]cn1)NC(=O)CNC(=O)CCc1c[nH]cn1)[C@@H](C)O)[C@@H](C)O)C(C)C)C(=O)N[C@@H](C)C(=O)N[C@@H](Cc1c[nH]c2ccccc12)C(=O)N[C@@H](CC(C)C)C(=O)N[C@@H](CC(C)C)C(=O)N[C@@H](CCCCNC(=O)CNC(=O)[C@H](CO)NC(=O)[C@H](CCC(=O)O)NC(=O)CNC(=O)[C@H](CO)NC(=O)CC[C@H](NC(=O)CC[C@H](NC(=O)CCCCCCCCCCCCCCCCC(=O)O)C(=O)O)C(=O)O)C(=O)N[C@H](C(N)=O)[C@@H](C)O [Example 37, N^ε34-[2-[[(2S)-2-[[(2S)-4-carboxy-2-[[2-[[(2S)-2-[[(4S)-4-carboxy-4-[[(4S)-4-carboxy-4-(17-carboxyheptadecanoylamino)butanoyl]amino]butanoyl]amino]-3-hydroxypropanoyl]amino]acetyl]amino]butanoyl]amino]-3-hydroxypropanoyl]amino]acetyl]-[Imp7,Gly8,His9,Arg18,Glu22,Arg26,Leu33,Thr35]-GLP-1-(7-35)-peptide amide] (I: Desaminohistidyl-GHGTFTSDVSRYLEEQAAREFIAWLLKT-NH2 / II: {C18 diacid-γGlu-γGlu}-SGESG; amide I:27-II:C)
Human GLP-1 receptor [3]
  EC50: 8 pM
Human GLP-1 receptor [2]
  IC50: 3200 pM
